Like-named read-outs stand apart in the source and are kept apart here.
What was measured:
[1] = tested on: ZIKV-induced caspase 3/7 activity in human astrocytes; assay: Caspase 3/7 activity assay, ZIKV-infected human astrocytes; format: cell-based; conditions: for IC50: read-out: Caspase 3 (IC50, uM) Astrocyte; for Emax: read-out: Caspase 3 (efficacy, %) Astrocyte
Method in brief: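 Human NPCs, SNB-19 cells or astrocytes seeded 16 h, compound added 30 min before ZIKV, then 6 h infection at 37 °C. Caspase-Glo 3/7 luminescence after 30 min at room temperature, normalized to uninfected cells (0%) and ZIKV-infected cells (100%).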

[2] = tested on: ZIKV-induced cell death in hNPCs; assay: ATP cell viability assay for ZIKV-induced cell death, hNPCs; format: cell-based, human; conditions: for IC50: Homo sapiens
Experimental: (§1) The reagent was reconstituted and prepared as described by the manufacturer. In order to measure the cell death caused by ZIKV infection, cells were cultured for 16 hours at 37° C. with 5% CO2 in assay plates, followed by the addition of ZIKV solution and incubation at 37° C. with 5% CO2 for 72 hours. ATPlite, the ATP monitoring reagent, was then added to the assay plates and they were incubated for 15 minutes. The resulting luminescence was measured using the ViewLux plate reader (Perkin Elmer). Data were normalized using the wells without cells as a control for 100% cell killing, and cell-containing wells without ZIKV infection were used as full cell viability (0% cell killing).
Human NPCs were seeded onto PDL coated 1536-well assay plates at 250 cells per 3 μl/well and incubated at 37° C. in 5% CO2 for 16 hours. Test compounds dissolved in DMSO were transferred to assay plates at a volume of 23 nl/well by an automated pintool workstation (Wako Automation, San Diego, Calif.). Compounds were incubated with cells for 30 minutes at 37° C. in 5% CO2, immediately followed by the addition of 2 μl/well of ZIKV. Incubation time of compound-treated cells with ZIKV varied based on assay format. Experiments measuring virus-induced caspase 3/7 activity required a 6 hour incubation of ZIKV in the presence compounds at 37° C. in 5% CO2. Following this incubation, 3.5 μl/well of caspase 3/7 reagent mixture was added to assay plates. The plates were incubated for 30 minutes at room temperature, and the resultant luminescence signal was measured using a ViewLux plate reader (Perkin Elmer). Experiments measuring virus-induced cell death required a 72-hour incubation of ZIKV in the presence of compounds at 37° C. in 5% CO2. Following this incubation, 3.5 μl/well of ATP content detection reagent was added to assay plates, incubated for 30 minutes at the room temperature, and the resultant luminescence signal was measured in a ViewLux plate reader.
as §1, with “The ATPlite luminescence assay system assay kit (PerkinElmer) was used to determine cell viability. The reagent” for “The reagent”, “by the manufacture. In order” for “by the manufacturer. In order”, “followed by addition of” for “followed by the addition of”, “plates and incubated for” for “plates and they were incubated for”, “Elmer). Data was normalized using” for “Elmer). Data were normalized using”
Human NPCs were seeded onto PDL coated 1536-well assay plates at 250 cells per 3 μl/well and incubated at 37° C. in 5% CO2 for 16 hours. Test compounds dissolved in DMSO were transferred to assay plates at a volume of 23 nl/well by an automated pintool workstation (Wako Automation, San Diego, Calif.). Compounds were incubated with cells for 30 minutes at 37° C. in 5% CO2, immediately followed by the addition of 2 μl/well of ZIKV. Incubation time of compound-treated cells with ZIKV varied based on assay format. Experiments measuring virus induced caspase 3/7 activity required a 6 hour incubation of ZIKV in the presence compounds at 37° C. in 5% CO2. Following this incubation, 3 μl/well of caspase 3/7 reagent mixture was added to assay plates, incubated for 30 minute at room temperature, and the resultant luminescence signal was measured using a ViewLux plate reader (Perkin Elmer). Experiments measuring the virus induced cell death required a 72 hour incubation of ZIKV in the presence of compounds at 37° C. in 5% CO2. Following this incubation, 3 μl/well of ATP content detection reagent was added to assay plates, incubated for 30 minute at room temperature, and the resultant luminescence signal was measured in a ViewLux plate reader.

[3] = Astrocyte, ZIKV-infected human astrocytes
[4] = ZIKV-infected hNPCs, read-out: Cell viability (IC50, uM) NPCs

Compound | IC50 [1, 3] [µM] | Emax [1, 3] [%] | Cell viability (efficacy, %) NPCs ([2]; ZIKV-infected hNPCs) [%] | other results
Cc1ccc(O)c(-n2nc3ccccc3n2)c1 [2-(2H-Benzotriazol-2-yl)-4-methylphenol] | 9.2 | 68.5 | 0.0 | –
Nc1nc2ccc([N+](=O)[O-])cc2s1 [2-Amino-6-nitrobenzothiazole] | 39.8 | 54.1 | 0.0 | –
CCOCCOC(=O)C=Cc1ccc(OC)cc1 [2-Ethoxylethyl-p-methoxycinnamate] | – | 0 | 0.0 | –
O=C(O)c1cc([N+](=O)[O-])ccc1NCCCc1ccccc1 [5-Nitro-2-(3-phenylpropylamino)benzoic acid] | 9.75 | 82.1 | 0.0 | –
O=C1NC(=O)/C(=C/c2ccc(-c3ccc(F)cc3O)o2)S1 [AS-252424] | – | – | 0.0 | Caspase 3 (efficacy, %) Astrocyte ([1]; ZIKV-infected human astrocytes): 37.5%; IC50 ([1]; ZIKV-infected human astrocytes): 1.73 µM
O=C1c2ccccc2C(=O)c2c1ccc(O)c2O [Alizarin] | 30.8 | 47.9 | 0.0 | –
COc1ccc(-c2cc(=S)ss2)cc1 [Anethole trithione] | 13.8 | 62.7 | 0.0 | –
N#CC1(c2ccc(NC(=O)c3cccnc3NCc3ccncc3)cc2)CCCC1 [Apatinib] | 19.5 | 57.9 | 0.0 | –
O=C(Nc1ccc(C(=O)O)c(O)c1)c1ccccc1 [Benzoylpas] | 5.81 | 94.9 | 0.0 | –
O=C(OCc1ccccc1)c1ccc(O)cc1 [Benzylparaben] | 17.3 | 62.8 | 0.0 | –
O=C1NC(=O)C(=Cc2ccc(-c3ccc(F)cc3)o2)S1 [CAY10505] | – | – | 0.0 | Caspase 3 (efficacy, %) Astrocyte ([1]; ZIKV-infected human astrocytes): 80.1%; IC50 ([1]; ZIKV-infected human astrocytes): 16.4 µM
CN(C)CCCSc1ccccc1NC(=O)/C=C/c1ccccc1 [Cinanserin] | 15.5 | 80.2 | 0.0 | –
CC(=O)Oc1cccc2c1C(=O)c1c(OC(C)=O)cc(C(=O)O)cc1C2=O [Diacerein] | 15.5 | 72.9 | 0.0 | –
O=C(Oc1ccccc1)c1cccc(C(=O)Oc2ccccc2)c1 [Diphenyl isophthalate] | 6.68 | 104 | 0.0 | –
Cc1cc(O)c2c(c1)C(=O)c1cc(O)cc(O)c1C2=O [Emodin] | 3.27 | 86.4 | 0.0 | –
C[C@H](NC(=O)C(=O)Nc1ccccc1C(C)(C)C)C(=O)N[C@@H](CC(=O)O)C(=O)COc1c(F)c(F)cc(F)c1F [Emricasan] | 0.46 | 77.1 | 54.4 | IC50 [2, 4]: 3.88 µM; IC50 ([2]; following ZIKV infection, read-out: IC50 (μM) for improving cell viability, hNPCs): 3.88 µM

Compound | IC50 [1, 3] [µM] | Emax [1, 3] [%] | Cell viability (efficacy, %) NPCs ([2]; ZIKV-infected hNPCs) [%] | other results
O=C(O)c1ccccc1NCCc1ccccc1 [Enfenamic acid] | 25.9 | 58 | 58.5 | IC50 [2, 4]: 7.74 µM
O=S(=O)(O)c1ccc2[nH]c(-c3ccccc3)nc2c1 [Ensulizole] | – | – | 0.0 | IC50 ([1]; Homo sapiens, Astrocyte): 1.95 µM; Emax ([1]; Homo sapiens, Astrocyte): 82.7%
c1ccc(CCNc2nc(-c3ccccc3)cs2)cc1 [Fanetizole] | 10.9 | 72.9 | 0.0 | –
O=C(O)CCC(=O)c1ccc(-c2ccccc2)cc1 [Fenbufen] | 21.8 | 81.5 | 0.0 | –
CN1CC(=O)NC1=NC(=O)Nc1cccc(Cl)c1 [Fenobam] | – | – | 0.0 | Caspase 3 (efficacy, %) Astrocyte ([1]; ZIKV-infected human astrocytes): 97.2%; IC50 ([1]; ZIKV-infected human astrocytes): 9.2 µM
O=C(O)c1ccccc1Nc1cccc(C(F)(F)F)c1 [Flufenamic acid] | 8.69 | 71.9 | 0.0 | –
C/C1=C2/[N-][C@H]([C@H](CC(N)=O)[C@@]2(C)CCC(=O)NC[C@@H](C)OP(=O)([O-])O[C@H]2[C@@H](O)[C@@H](n3cnc4cc(C)c(C)cc43)O[C@@H]2CO)[C@]2(C)N=C(/C(C)=C3N=C(/C=C4N=C1[C@@H](CCC(N)=O)C\4(C)C)[C@@H](CCC(N)=O)[C@]\3(C)CC(N)=O)[C@@H](CCC(N)=O)[C@]2(C)CC(N)=O.[Co+3].[OH-] [Hydroxocobalamin] | – | – | 0.0 | Caspase 3 (efficacy, %) Astrocyte ([1]; ZIKV-infected human astrocytes): 83.4%; IC50 ([1]; ZIKV-infected human astrocytes): 0.97 µM
CCC(C(=O)O)c1ccc(N2Cc3ccccc3C2=O)cc1 (stereo not drawn) [Indobufen] | 6.52 | 86.3 | 0.0 | –
O=C(c1ccccc1)c1ccc2n1CCC2C(=O)O (stereo not drawn) [Ketorolac tromethamine] | 21.8 | 61.7 | 0.0 | –
Cc1cccc(C#Cc2ccccc2)n1 [MPEP, 2-Methyl-6-(phenylethynyl)pyridine] | 5.81 | 118 | 0.0 | –
O=C(Nc1ccc([N+](=O)[O-])cc1Cl)c1cc(Cl)ccc1O [Niclosamide] | 1.84 | 96.8 | – | –
CC(=O)Nc1ccc([C@H](C)C(=O)Nc2ncc(C(C)C)s2)cc1 [PHA-690509] | – | – | – | Caspase 3 (efficacy, %) Astrocyte ([1]; ZIKV-infected human astrocytes): 71.6%; IC50 ([1]; ZIKV-infected human astrocytes): 13 µM
CN1CCN(c2cc3c(nn2)Oc2ccccc2N3C)CC1 [Pipofezine] | 11.3 | 56.3 | 0.0 | –
Cc1cccc(/C=C/c2ccccc2)n1 [SIB 1893] | – | – | 0.0 | Caspase 3 (efficacy, %) Astrocyte ([1]; ZIKV-infected human astrocytes): 96.2%; IC50 ([1]; ZIKV-infected human astrocytes): 12.3 µM
CC(C(=O)O)c1ccc(C(=O)c2cccs2)cc1 (stereo not drawn) [Suprofen] | 19.5 | 64.5 | 0.0 | –

— patent publication US10940188B2, “Compounds and methods for treatment and prevention of Flavivirus infection” (priority 2016, dated 2021)
